Earlier results as cited in patent US8680143B2, “Orally active curcuminoid compounds” (Laila Pharmaceuticals Pvt. Ltd., priority 2008, dated 2014).

Structure (SMILES): O=C(C=Cc1ccc(O)c(O)c1)CC(=O)C=Cc1ccc(O)c(O)c1 [Bis-O-demethylcurcumin, 1,7-bis(3,4-dihydroxyphenyl)-1,6-heptadiene-3,5-dione]
- oral bis-O-demethylcurcumin that enters the plasma: less than 1%
